Data: PubChem BioAssay (NCI)
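A five-concentration, 48-hour dose response in 96-well plates underlies each endpoint, interpolated linearly between surrounding concentrations. GI50 marks 50% less growth. The concentration for full growth arrest is given as TGI.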

Legend:
Test in all cases: NCI tumour cell line growth inhibition, 48 h
KM12 colon = tested on: KM12 colon
SK-MEL-2 melanoma = tested on: SK-MEL-2 melanoma
HL-60(TB) leukemia = tested on: HL-60(TB) leukemia
SK-MEL-28 melanoma = tested on: SK-MEL-28 melanoma
M14 melanoma = tested on: M14 melanoma
SNB-75 CNS = tested on: SNB-75 CNS
SW-620 colon = tested on: SW-620 colon
SF-295 CNS = tested on: SF-295 CNS
SR leukemia = tested on: SR leukemia
RXF 393 renal = tested on: RXF 393 renal

SMILES | GI50 (KM12 colon) | TGI (KM12 colon) | GI50 (SK-MEL-2 melanoma) | TGI (SK-MEL-2 melanoma) | GI50 (HL-60(TB) leukemia) | TGI (HL-60(TB) leukemia) | GI50 (SK-MEL-28 melanoma) | TGI (SK-MEL-28 melanoma) | GI50 (M14 melanoma) | TGI (M14 melanoma) | GI50 (SNB-75 CNS) | TGI (SNB-75 CNS) | GI50 (SW-620 colon) | TGI (SW-620 colon) | GI50 (SF-295 CNS) | TGI (SF-295 CNS) | TGI (SR leukemia) | TGI (RXF 393 renal) | GI50 (RXF 393 renal) | GI50 (SR leukemia)
S=c1nc(-c2ccccc2)oc(=NC2CCCCC2)n1C1CCCCC1 | 3480 nM | 10.1 µM | 4510 nM | 17.8 µM | 1900 nM | 5.29 µM | 14300 nM | 30.2 µM | 6200 nM | 27.8 µM | 4650 nM | 17.5 µM | 3.78 µM | 14.6 µM | 4070 nM | 37.4 µM |  |  |  | 
CCC1C(C)c2c([nH]c3ccccc23)C2C(=O)N(c3ccccc3)C(=O)C21 (stereo unspecified) |  | 32.1 µM |  |  |  | 33.9 µM |  | 33.4 µM |  | 33.4 µM |  | 39.4 µM |  | 35.9 µM |  | 32.3 µM | 47.3 µM | 26 µM |  | 
COc1ccc2c(c1)CCC1C2CC[C@@]2(C)C1CC[C@@]2(O)CNC(=O)/C=C/c1ccc(O)c(OC)c1 (stereo partly specified) | 4770 nM | > 100 µM | 38800 nM | > 100 µM | 8460 nM | > 100 µM | 15200 nM | 84.4 µM | 15800 nM | 53 µM | 26600 nM | > 100 µM | 58.4 µM | > 100 µM | 28400 nM | > 100 µM |  | 78.6 µM | 21100 nM | 
COc1ccc(C2OC(=O)c3c2ccc2ccccc32)c(C)c1 (stereo unspecified) |  | > 100 µM |  | 7.52 µM |  | 5.38 µM |  | > 100 µM |  | > 100 µM |  | 30.6 µM |  | > 100 µM |  |  | > 100 µM | > 100 µM |  | 
CCOC(=O)c1sc(-c2ccc(OS(=O)(=O)c3cccs3)c(C=O)c2)nc1C | 1470 nM | 3.24 µM | 2060 nM | 4.78 µM | 1890 nM | 4.93 µM | 2010 nM | 4.07 µM | 1900 nM | 3.86 µM | 1570 nM | 4.07 µM |  |  | 1720 nM | 3.36 µM | > 100 µM |  |  | 1820 nM
Nc1[nH]c(=O)ncc1F |  | > 100 µM |  | > 100 µM |  | > 100 µM |  | > 100 µM |  | > 100 µM |  |  |  | > 100 µM |  | > 100 µM | > 100 µM | > 100 µM |  | 
O=C(c1cc(O)ccc1O)c1ccccc1C(Cl)(Cl)Cl |  | > 100 µM |  | > 100 µM |  | 97.3 µM |  |  |  | > 100 µM |  | > 100 µM |  | > 100 µM |  | > 100 µM | > 100 µM | > 100 µM |  | 
CC(=O)NS(=O)(=O)c1ccc(NC(=O)COC(=O)c2cccc3c(=O)c4ccccc4[nH]c23)cc1 |  | > 100 µM |  | > 100 µM |  | > 100 µM |  | > 100 µM |  | > 100 µM |  | > 100 µM |  | > 100 µM |  | > 100 µM |  | > 100 µM |  | 
CC1=NNC(=NCCN(C)C)C/C1=C/c1ccccc1Cl |  | > 100 µM |  | > 100 µM |  |  |  | > 100 µM |  | > 100 µM |  | > 100 µM |  | > 100 µM |  | > 100 µM |  | > 100 µM |  | 
Cl.[Pt].[c-]1ccccc1-c1ccccn1.c1ccc(P(c2ccccc2)C([PH+](c2ccccc2)c2ccccc2)[PH+](c2ccccc2)c2ccccc2)cc1 | 2480 nM | 7.22 µM | 2090 nM | 5.92 µM | 1100 nM | 5.32 µM | 2640 nM | 9.7 µM |  |  | 1640 nM | 23.5 µM | 2.32 µM | 8.31 µM | 2480 nM | 12.4 µM | 28.6 µM | 4.01 µM | 1480 nM | 1210 nM
NC(=O)CCC(NC(=O)OCc1ccccc1)C(=O)OCC(=O)c1ccccc1 (stereo unspecified) | > 100000 nM | > 100 µM | > 100000 nM | > 100 µM | > 100000 nM | > 100 µM | 43900 nM | > 100 µM |  |  | > 100000 nM | > 100 µM | > 100 µM | > 100 µM | > 100000 nM | > 100 µM | > 100 µM | > 100 µM | > 100000 nM | > 100000 nM
O=C(c1ccccc1)C1C(C(=O)c2ccccc2)N1Cc1ccccc1 (stereo unspecified) |  | > 100 µM |  | 51.5 µM |  |  |  | > 100 µM |  | > 100 µM |  | 57.1 µM |  | > 100 µM |  | > 100 µM |  |  |  | 
COc1ccc(SC2c3cc(OC)c(OC)cc3Oc3nc(N)c(C#N)c(N)c32)cc1 (stereo unspecified) | 1530 nM | 3.05 µM | 1360 nM | 2.8 µM |  |  | 1470 nM | 2.91 µM | 1210 nM | 2.65 µM | 1310 nM | 2.62 µM | 1.24 µM | 3.2 µM | 1600 nM | 2.96 µM |  | 2.01 µM | 740 nM | 
Cc1ccc2c(c1)C(=O)c1c-2n(CCCN)c(=O)c2cc([N+](=O)[O-])ccc12 | 433 nM | 1.23 µM | 1370 nM | 4.15 µM | 28.5 nM | 0.327 µM | 2270 nM | 4.63 µM | 452 nM | 1.16 µM | 385 nM | 1.07 µM |  |  | 120 nM | 0.663 µM | 0.201 µM | 1.31 µM | 627 nM | 39.4 nM
Cn1c2ccccc2c(=Nc2ccccc2)c2c3ccccc3[nH]c21 |  |  | 3780 nM | > 100 µM |  |  | 2300 nM | 6.17 µM | 1650 nM | 3.02 µM |  |  | 1.09 µM | 2.9 µM | 1030 nM | 2.22 µM |  | 4.05 µM | 1840 nM | 
Nc1nc2c(ncn2C2OC(CO)C(O)C2N)c(=O)[nH]1 (stereo unspecified) |  | > 100 µM |  | > 100 µM |  | > 100 µM |  | > 100 µM |  | > 100 µM |  | > 100 µM |  | > 100 µM |  | > 100 µM |  |  |  | 
Oc1ccc2oc3ncc(Cl)c(-c4ccccc4)c3c2c1 | > 100000 nM | > 100 µM | > 100000 nM | > 100 µM | > 100000 nM | > 100 µM | > 100000 nM | > 100 µM | > 100000 nM | > 100 µM | > 100000 nM | > 100 µM | > 100 µM | > 100 µM | > 100000 nM | > 100 µM |  | > 100 µM | > 100000 nM | 
Cc1cnc[nH]c1=O |  | > 100 µM |  | > 100 µM |  | > 100 µM |  | > 100 µM |  | > 100 µM |  | > 100 µM |  | > 100 µM |  | > 100 µM |  |  |  | 
